The values that follow come from patent US6011047A, “Substituted 3-amino-2-hydroxyphenylacetamide derivatives as enzyme inhibitors” (priority 1997, dated 2000).

One data set deals with thrombin. The following applies: in words; cited from earlier work.
The conditions of data set [1]: in words; cited from earlier work.
The conditions of data set [2]: in words; cited from earlier work. This is another data set of the same source.
Data set [3] deals with thrombotic occlusion in rat carotid artery. The following applies: dose that prevents complete thrombotic occlusion in 50% of animals, FeCl3 model; cited from earlier work.
Data set [4] concerns the target T1, human alpha-thrombin (Homo sapiens, UniProt P00734). The data set can be described thus: in vitro thrombin inhibition assay (Ki, chromogenic substrate Pefachrome t-PA). Format: biochemical. Conditions: human alpha-thrombin 0.2 nM; steady state velocities over 60 minutes; pH 7.5. How it is done: The ability of the compounds of Example 11 and 14 to act as an inhibitor of thrombin catalytic activity was assessed by determining the compounds, inhibition constant, Ki.
Enzyme activity was determined using the chromogenic substrate Pefachrome t-PA (CH3 SO2 -D-hexahydrotyrosine-glycyl-L-arginine-p-Nitroanilide), obtained from Pentapharm Ltd. The substrate was reconstituted in deionized water prior to use. Purified human alpha-thrombin (3000U/mg specific activity) was obtained from Enzyme Research Laboratories, Inc. The buffer used for all assays was HBSA (10 mM HEPES, pH 7.5, 150 mM sodium chloride, 0.1% bovine serum albumin).
At time zero, 50 microliters of alpha-thrombin diluted in HBSA were added to the wells, yielding a final concentration of 0.2 nM in a total volume of 250 microliters. Velocities of chromogenic substrate hydrolysis which occurred over 60 minutes were measured by the change in absorbance at 405 nm using a Thermo Max® Kinetic Microplate Reader. […] The extent of substrate hydrolysis was less than 5% over the course of this assay.

Data set [5] addresses T1, human alpha-thrombin. The data set can be described thus: Thrombin (fIIa) IC50 assay for specificity determination. Format: biochemical. The following applies: 30-minute incubation. As to the method: (§1) The ability of compounds of this invention to act as a selective inhibitor of thrombin catalytic activity was assessed by determining the concentration of test compound which inhibited the activity of this enzyme by 50%, (IC50), and comparing this value to that determined for some or all of the following related serine proteases: recombinant tissue plasminogen activator (rt-PA), plasmin, activated protein C (aPC), chymotrypsin and trypsin.
(§2) The buffer used for all assays was HBSA (10 mM HEPES, pH 7.5, 150 mM sodium chloride, 0.1% bovine serum albumin). The assay for IC50 determinations was conducted by combining in appropriate wells of a Corning microtiter plate, 50 microliters of HBSA, 50 microliters of the test compound at a specified concentration (covering a broad concentration range) diluted in HBSA (or HBSA alone for Vo (uninhibited velocity) measurement), and 50 microliters of the enzyme diluted in HBSA. […] The initial velocity of chromogenic substrate hydrolysis was measured by the change in absorbance at 405 nm using a Thermo Max® Kinetic Microplate Reader over a 5 minute period in which less than 5% of the added substrate was utilized. […]
Enzyme activity was determined using the chromogenic substrate, Pefachrome t-PA (CH3 SO2 -D-hexahydrotyrosine-glycyl-L-Arginine-p-nitroaniline, obtained from Pentapharm Ltd.). […]

A further data set has as its target T2, rt-PA (Homo sapiens, UniProt P00750).
T2 construct: purchased Genentech Inc. Activase
Kind of data set: Recombinant tissue plasminogen activator (rt-PA) IC50 assay. Format: biochemical. Conditions: maximal concentration 2500 nM. As to the method:
as §1, §2
rt-PA catalytic activity was determined using the substrate, Pefachrome t-PA (CH3 SO2 -D-hexahydrotyrosine-glycyl-L-arginine-p-nitroanilide, obtained from Pentapharm Ltd.). […]

Another data set concerns the target Plasmin (Homo sapiens, UniProt P00747). The data set can be described thus: Plasmin IC50 assay. The data set is classed as biochemical. Conditions: maximal concentration 2500 nM. As to the method:
as §1, §2
Plasmin catalytic activity was determined using the chromogenic substrate, S-2366 (L-pyro-Glu-Pro-Arg-pNa.HCl), which was obtained from DiaPharma Group. […]

The target of a further data set is T3, aPC (Homo sapiens, UniProt P04070).
T3 construct: purchased Hematologic Technologies, Inc
T3 sequence (P04070 212-450 limits assumed): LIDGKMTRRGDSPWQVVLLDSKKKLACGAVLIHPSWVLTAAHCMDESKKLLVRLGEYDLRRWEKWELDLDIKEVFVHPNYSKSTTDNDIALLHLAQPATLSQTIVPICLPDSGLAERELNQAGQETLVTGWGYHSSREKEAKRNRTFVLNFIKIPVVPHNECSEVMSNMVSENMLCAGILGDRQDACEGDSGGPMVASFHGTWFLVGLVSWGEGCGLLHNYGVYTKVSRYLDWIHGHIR
T3 sequence (P04070 43-197 limits assumed): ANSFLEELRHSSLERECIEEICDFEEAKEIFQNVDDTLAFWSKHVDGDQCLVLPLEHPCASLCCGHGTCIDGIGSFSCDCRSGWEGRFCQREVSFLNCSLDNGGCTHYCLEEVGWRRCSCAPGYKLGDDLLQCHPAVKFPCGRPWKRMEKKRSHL
Kind of data set: Activated protein C (aPC) IC50 assay. Format: biochemical. Conditions: maximal concentration 2500 nM. As to the method: as §1, §2
aPC catalytic activity was determined using the chromogenic substrate, Pefachrome PC (delta-carbobenzloxy-D-lysine-L-prolyl-L-arginine-p-nitroanilide), obtained from Pentapharm Ltd.). […]

The target in the next data set is T4, Chymotrypsin (Bos taurus, UniProt P00766).
T4 construct: bovine pancreatic a-chymotrypsin; purchased Worthington Biochemical Corp. CDI; host or cells: bovine pancreas
The data set can be described thus: Chymotrypsin IC50 assay. The data set is classed as biochemical, bovine. Conditions: maximal concentration 2500 nM. As to the method:
as §1, §2
Chymotrypsin catalytic activity was determined using the chromogenic substrate, S-2586 (methoxy-succinyl-L-arginine-L-prolyl-L-tyrosyl-p-nitroanilide), which was obtained from DiaPharma Group. […]

Another data set has as its target T5, Trypsin (Bos taurus, UniProt P00760).
T5 construct: bovine pancreatic trypsin; purchased Worthington Biochemical Corp. TRL3; host or cells: bovine pancreas
T5 sequence (P00760 24-246): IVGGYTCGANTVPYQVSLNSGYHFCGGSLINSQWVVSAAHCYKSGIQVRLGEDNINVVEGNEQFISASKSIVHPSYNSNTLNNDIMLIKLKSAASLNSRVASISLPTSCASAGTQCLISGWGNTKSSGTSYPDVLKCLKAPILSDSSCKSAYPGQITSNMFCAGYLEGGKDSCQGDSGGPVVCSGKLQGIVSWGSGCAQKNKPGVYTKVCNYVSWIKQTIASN
Kind of data set: Trypsin IC50 assay. Format: biochemical, bovine. The following applies: 30-minute incubation. As to the method: as §1, §2
Trypsin catalytic activity was determined using the chromogenic substrate, S-2222 (benzoyl-L-isoleucine-L-glutamic acid-(gamma-methyl ester)-L-arginine-p-nitroanilide), which was obtained from DiaPharma Group. […]

For data set [6] the following is noted: in words; cited from earlier work. This is another data set of the same source.
Data set [7] deals with atherosclerotic rabbit femoral artery. The following applies: in words; cited from earlier work.

T2 sequence (P00750 36-562): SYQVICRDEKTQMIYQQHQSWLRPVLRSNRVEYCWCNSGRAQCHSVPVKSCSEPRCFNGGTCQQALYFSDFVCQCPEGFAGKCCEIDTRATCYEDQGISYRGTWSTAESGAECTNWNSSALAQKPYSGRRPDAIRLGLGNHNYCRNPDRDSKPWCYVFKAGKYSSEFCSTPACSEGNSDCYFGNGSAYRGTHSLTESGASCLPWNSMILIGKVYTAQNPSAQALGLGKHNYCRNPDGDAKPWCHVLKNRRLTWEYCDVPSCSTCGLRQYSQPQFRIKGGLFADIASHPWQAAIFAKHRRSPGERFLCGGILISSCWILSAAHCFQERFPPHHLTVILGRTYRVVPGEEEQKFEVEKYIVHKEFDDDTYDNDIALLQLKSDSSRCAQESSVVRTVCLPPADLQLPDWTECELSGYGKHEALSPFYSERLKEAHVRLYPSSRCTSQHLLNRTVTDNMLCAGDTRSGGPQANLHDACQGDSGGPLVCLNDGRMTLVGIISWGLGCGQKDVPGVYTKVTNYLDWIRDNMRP
Plasmin, sequence (P00747 581-810 limits assumed): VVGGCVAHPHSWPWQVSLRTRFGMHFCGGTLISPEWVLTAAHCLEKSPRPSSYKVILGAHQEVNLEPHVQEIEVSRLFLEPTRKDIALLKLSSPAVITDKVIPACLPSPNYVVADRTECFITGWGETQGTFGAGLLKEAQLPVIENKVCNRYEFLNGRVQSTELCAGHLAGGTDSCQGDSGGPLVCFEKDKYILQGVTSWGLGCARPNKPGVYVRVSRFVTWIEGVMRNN
Plasmin, sequence (P00747 97-580 limits assumed): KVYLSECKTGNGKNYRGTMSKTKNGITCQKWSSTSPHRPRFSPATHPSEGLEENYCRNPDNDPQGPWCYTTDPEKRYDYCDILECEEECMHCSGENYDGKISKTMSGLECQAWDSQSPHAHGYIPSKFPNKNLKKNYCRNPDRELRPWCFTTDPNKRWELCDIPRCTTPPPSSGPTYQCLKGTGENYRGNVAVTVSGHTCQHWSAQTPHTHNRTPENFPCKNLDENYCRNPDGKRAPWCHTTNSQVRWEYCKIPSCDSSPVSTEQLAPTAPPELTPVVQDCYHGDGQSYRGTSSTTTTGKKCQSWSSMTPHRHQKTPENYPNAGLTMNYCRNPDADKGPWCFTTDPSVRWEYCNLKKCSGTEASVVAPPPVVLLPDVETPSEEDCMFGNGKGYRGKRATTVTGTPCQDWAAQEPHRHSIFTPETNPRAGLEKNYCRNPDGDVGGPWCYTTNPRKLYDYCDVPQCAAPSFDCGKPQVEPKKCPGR

As for `N=C(N)c1ccc(CC(=O)C(=O)O)cc1` [APPA, 4-amidinophenylpyruvic acid], in the data set on thrombin, the “selectivity of thrombin inhibition” value was “non-selective, inhibiting trypsin, plasmin and kallikrein”. For the same molecule, the toxicity result in data set [1] is “low toxicity”. Further, in data set [2], the pharmacokinetics result was “favourable pharmacokinetics”.

Regarding `CC1CNc2c(cccc2S(=O)(=O)N[C@@H](CCCNC(=N)N)C(=O)N2CC[C@@H](C)C[C@@H]2C(=O)O)C1` (stereo partly drawn) [Argatroban, 2R,4R-4-methyl-1-[N-2-(3-methyl-1,2,3,4-tetrahydro-8-quinolinesulfonyl)-L-argininy]-2-piperdinecarboxylic acid], the 50% effective dose (ED50) in data set [3] was 3.8 mg/kg.

The molecule `Cc1ccc(NS(=O)(=O)Cc2ccccc2)c(O)c1CC(=O)N[C@H](C=O)CCCN=C(N)N` [Example 11, N-[2-hydroxy-3-(N-benzylsulfonylamino)-6-methylphenylacetyl]-L-argininal] had a Ki on human alpha-thrombin [4] of 0.79 nM. Moreover, the IC50 on human alpha-thrombin [5] is 3.19 nM; on rt-PA, more than 2500 nM; against Plasmin, more than 2500 nM; against aPC it was more than 2500 nM; on Chymotrypsin, more than 2500 nM; against Trypsin it was 1140 nM.

Turning to `COc1c(NS(=O)(=O)Cc2ccccc2)ccc(C)c1CC(=O)N[C@H](C=O)CCCN=C(N)N` [Example 14, N-[2-methoxy-3-(N-benzylsulfonylamino)-6-methylphenylacetyl]-L-argininal], the affinity on human alpha-thrombin [4], expressed as Ki, was 1 nM. Moreover, the IC50 against human alpha-thrombin [5] is 1.44 nM; on rt-PA, more than 2500 nM; at Plasmin, more than 2500 nM; against aPC, more than 2500 nM; against Chymotrypsin it was more than 2500 nM; against Trypsin, 1810 nM.

As for `CS(=O)(=O)O.CS(=O)(=O)O.N=C(N)Nc1ccc(C(=O)Oc2ccc3cc(C(=N)N)ccc3c2)cc1` [FUT 175, 6-amidino-2-naphthyl-4-guanidinobenzoate dimethanesulfonate], the “selectivity of thrombin inhibition” value with thrombin is “non-selective”.

Hirudin: the “antithrombotic / anticoagulant effect” value in data set [6] is given as “potent antithrombotic agent in vivo”. Further, the “inhibition of smooth muscle proliferation and associated restenosis” value in [7] was “effectively inhibit smooth muscle proliferation and the associated restenosis”.
